Assay results as given in PubChem BioAssay (NCI).
“And” between values parts separate entries of the source, which are not always exact repeats. Equal entries are not always repeated.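 Protocol summary: plate cells (96-well), add compound at 5 concentrations, incubate 48 h, interpolate endpoints linearly. At the GI50, growth is halved. Definition used: TGI = concentration required for complete inhibition of growth.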

Tests used:
Test in all cases: growth of human tumour cells (NCI), 48 h
OVCAR-3 ovarian = system: OVCAR-3 ovarian
RXF 393 renal = system: RXF 393 renal
ACHN renal = system: ACHN renal
SN12C renal = system: SN12C renal
HOP-62 NSCLC = system: HOP-62 NSCLC
PC-3 prostate = system: PC-3 prostate
MOLT-4 leukemia = system: MOLT-4 leukemia
A498 renal = system: A498 renal
MALME-3M melanoma = system: MALME-3M melanoma
CAKI-1 renal = system: CAKI-1 renal

Structure (SMILES) | GI50 (OVCAR-3 ovarian) | TGI (OVCAR-3 ovarian) | GI50 (RXF 393 renal) | TGI (RXF 393 renal) | GI50 (ACHN renal) | TGI (ACHN renal) | GI50 (SN12C renal) | TGI (SN12C renal) | GI50 (HOP-62 NSCLC) | TGI (HOP-62 NSCLC) | GI50 (PC-3 prostate) | TGI (PC-3 prostate) | GI50 (MOLT-4 leukemia) | TGI (MOLT-4 leukemia) | GI50 (A498 renal) | TGI (A498 renal) | GI50 (MALME-3M melanoma) | TGI (MALME-3M melanoma) | GI50 (CAKI-1 renal) | TGI (CAKI-1 renal)
c1cncc(-c2nc3ccccc3s2)c1 | > 100 µM | > 100 µM | 64.7 µM | > 100 µM | 95.1 µM | > 100 µM | > 100 µM | > 100 µM | > 100 µM | > 100 µM | > 100 µM | > 100 µM | 73.7 µM | > 100 µM | 50.7 µM | > 100 µM | > 100 µM | > 100 µM | > 100 µM | > 100 µM
CN[C@@H]1C[C@H]2O[C@@](C)([C@@H]1OC)n1c3ccccc3c3c4c(c5c6ccccc6n2c5c31)C(=O)N[C@H]4O | 0.101 µM | 1.99 µM |  | 0.0534 µM | 0.036 µM | > 10 µM |  | 1.7 µM | 0.0187 µM | 0.766 µM | 0.0149 µM | 1.14 µM | 0.0337 µM | > 4.75 µM | 0.0053 µM | 0.0203 µM | 0.0217 µM | 0.486 µM | 0.00463 µM | 0.0305 µM
N#C/C(=C\Nc1ccccn1)C(=O)c1ccco1 |  | > 100 µM |  | > 100 µM |  | > 100 µM |  | > 100 µM |  | > 100 µM |  | > 100 µM |  | > 100 µM |  | > 100 µM |  | > 100 µM |  | > 100 µM
O=C(NCCCCCCNC(=O)n1cc(F)c(=O)[nH]c1=O)NCCCOCCOCCOCCOCCOCCOCCOCCOCCOCCOCCOCCOCCOCCOCCOCCOCCOCCOCCOCCOCCOCCCNC(=O)C(O)C(O)C(OC1OC(CO)C(O)C(O)C1O)C(O)CO (stereo unspecified) |  | > 100 µM |  | > 100 µM |  | > 100 µM |  | > 100 µM |  | > 100 µM |  | > 100 µM |  | > 100 µM |  | > 100 µM |  | > 100 µM |  | > 100 µM
CC(=O)OC1CC[C@@]2(C)C(CC[C@]3(C)C2CC=C2[C@@H]4CC(C)(C)CCC4(C)CCC23C)[C@@]1(C)C(=O)O (stereo partly specified) |  | 37.7 µM |  | 36.9 µM |  | 30.7 µM |  | 41.3 µM |  | 42 µM |  | 23.1 µM |  | 47.3 µM |  | 39.3 µM |  | 47.1 µM |  | 38.5 µM
Cc1ccc(C(=O)N2CCN(C(=O)c3ccc(C)cc3)c3ccccc32)cc1 |  | 10.6 µM |  | 8.43 µM |  | > 100 µM |  | > 100 µM |  | > 100 µM |  | > 100 µM |  | > 46.4 µM |  | > 74.1 µM |  | > 100 µM |  | 82.7 µM
Clc1cccc(N2CCN(CCN3CCc4c([nH]c5ccccc45)C3c3cccnc3)CC2)c1 (stereo unspecified) |  | > 100 µM |  | > 100 µM |  | > 100 µM |  | > 92.2 µM |  | > 86.8 µM |  | > 100 µM |  | > 100 µM |  | > 100 µM |  | > 100 µM |  | > 100 µM
Fc1cccc(CSc2ncnc3c2ncn3C2CCCS2)c1 (stereo unspecified) |  | 35.6 µM |  | 92.2 µM |  | 39.7 µM |  | 82 µM |  | 40.3 µM |  | > 100 µM |  | 24 µM |  | 41.8 µM |  | 49.3 µM |  | > 100 µM
CC1(C)N=C(N)N=C(N)N1c1ccc(CCc2ccc(Cl)cc2S(=O)(=O)F)c(Cl)c1 | 4.82 µM | 21.4 µM | 23 µM | > 100 µM | 44.6 µM | > 100 µM | 7.98 µM | > 100 µM | 7 µM | 23 µM | 6.62 µM | > 100 µM | 11.5 µM | 73.6 µM | 62.8 µM | > 100 µM | 14.7 µM | 60.3 µM | > 100 µM | > 100 µM
CCOc1ccc2nc(-c3cccc(OCC(=O)NC(C)C)c3)nc(Nc3ccc(-c4cn[nH]c4)cc3)c2c1 | 1.34 µM | 3.12 µM | 0.401 µM | 2.16 µM | 0.675 µM | 2.96 µM | 1.06 µM | 3.76 µM | 0.399 µM | 2.22 µM | 0.348 µM | 2 µM | 0.319 µM | > 31.9 µM | 2.54 µM | 9.85 µM | 0.324 µM | 1.79 µM | 0.968 µM | 3.87 µM
OC(C1CO1)C(O)C1CO1 (stereo unspecified) | 101 µM | 98.7 µM and 286 µM | 71.4 µM | 139 µM and 231 µM |  | 52.2 µM and 156 µM | 13.9 µM | 126 µM and 249 µM | 8.57 µM | 36.5 µM and 99.7 µM | 76.1 µM | 150 µM and 220 µM | 1.95 µM | 103 µM and 239 µM | 116 µM | 134 µM and 263 µM |  | 125 µM and 263 µM | 15 µM and 5.46 µM | 91.5 µM and 158 µM
